In article PMC8762250, “Identification of Novel Chemical Scaffolds that Inhibit the Growth of Mycobacterium tuberculosis in Macrophages” (Frontiers in Pharmacology, 2022):
Where two headings read alike, the source gives them in different places. Marks after values point to notes of the source that are not given here.

Tests used:
M. tuberculosis [1] = assay: High content assay of intracellular M. tuberculosis growth in infected RAW264.7 macrophages; format: cell-based, Mycobacterium tuberculosis H37Rv-LP
Experimental: Compounds were obtained in 384-well plates as 10 mM DMSO stock solutions and tested as described ([Manning et al., 2017]). Briefly, assay plates were prepared in clear bottom, black 384-well plates with 30 μl cRPMI and 0.6 μl compound in columns 3–22 (final concentration of 10 μM compound, 1% DMSO). […] INH and STA were also included in dose response on each plate. RAW264.7 cells were infected with M. tuberculosis DREAM8 as described ([Manning et al., 2017]) at an MOI of 1 for 24 h and extracellular bacteria removed by washing. Cells were recovered using Accumax, harvested, washed and resuspended in serum-free RPMI; 30 μl of infected cells were dispensed into each well at 3,300 cells/well. Plates were incubated for 72 h, 10 μl of 5X SYBR Green I was added and plates were imaged with an ImageXpress Micro High Content Screening System (Molecular Devices) using a ×4 objective and FITC and Texas Red channels. MetaXpress was used to analyze images. The integrated intensity of M. tuberculosis or macrophages was calculated for each well. Growth inhibition was calculated for each test well by normalizing to the average integrated intensity of the DMSO control wells. IC50 was calculated as the compound concentration required to reduce bacterial growth by 50%. TC50 was calculated as the compound concentration required to reduce macrophage viability by 50%.

[2] = HepG2 cytotoxicity (CellTiter-Glo, 72 h); format: cell-based, human; settings: human
Experimental: (§1) Cytotoxicity against HepG2 cells was measured after 72 h. Cells were seeded in 384-well plates at 1,800 cells per well. Compounds were added as a 10-point three-fold serial dilution after 24 h (final assay concentration of 1% DMSO). CellTiter-Glo® reagent (Promega) was added and relative luminescence units (RLU) measured. Data were normalized to the DMSO controls. Curves were fitted using the Levenberg–Marquardt algorithm; TC50 was calculated as the compound concentration required to reduce cell viability by 50%.
(§2) We further evaluated cytotoxicity using the HepG2 cell line cultured with either glucose or galactose in the medium (Table 2). HepG2 cells cultured with galactose rely on mitochondrial oxidative phosphorylation rather than glycolysis which increases their susceptibility to mitochondrial toxicants allowing us to identify compounds with mitochondrial toxicity ([Kamalian et al., 2015]).

M. tuberculosis [3] = assay: Minimum inhibitory concentration in liquid medium (axenic culture); format: cell-based, Mycobacterium tuberculosis; settings: for IC50: read-out: Anti-tubercular activity in axenic culture IC50
RAW264.7 cells = assay: Macrophage viability in the same high content assay; settings: for Intracellular RAW TC50 / Intracellular activity Cytotoxicity TC50: infected RAW264.7 macrophages; for Intracellular RAW TC50: SAR tables 4-8; for Intracellular activity Cytotoxicity TC50: 72 h; for selectivity index (TC50/IC50): macrophage TC50 / intracellular IC50
HepG2 cells = assay: HepG2 cytotoxicity (CellTiter-Glo, 72 h); format: cell-based, human; settings: for HepG2 cytotoxicity TC50 Galactose / HepG2 cytotoxicity TC50 Glucose: human, 72 h
Experimental: as §1, §2

[4] = Mycobacterium tuberculosis, RAW264.7, in RAW264.7 macrophages, SAR tables 4-8, read-out: Intracellular Mtb IC50
[5] = HepG2 cytotoxicity IC50 Galactose
[6] = HepG2 cytotoxicity IC50 Glucose
[7] = Mycobacterium tuberculosis, axenic culture, SAR tables 4-8, read-out: Extracellular IC90
[8] = Mycobacterium tuberculosis, RAW264.7, 72 h, M. tuberculosis in RAW264.7 cells, MOI 1, 72 h, read-out: Intracellular activity Anti-tubercular activity IC50
[9] = Mycobacterium tuberculosis, 120 h, extracellular, 5 days, OD590
[10] = Mycobacterium tuberculosis, 120 h, extracellular, 5 days, OD590, read-out: Anti-tubercular activity in axenic culture IC90
[11] = Mycobacterium tuberculosis, RAW264.7, read-out: Intracellular Mtb IC50, in RAW264.7 macrophages, SAR tables 4-8

| SMILES | IC50 (M. tuberculosis [1]; [4]) | IC50 at 72 h [2, 5] | IC50 at 72 h [2, 6] | IC90 (M. tuberculosis [3]; [7]) | Intracellular RAW TC50 (RAW264.7 cells) | activity against intracellular M. tuberculosis (M. tuberculosis [1]) | IC50 (M. tuberculosis [1]; in RAW264.7 macrophages, SAR tables 4-8, read-out: Intracellular Mtb IC50) | IC50 (M. tuberculosis [1]; [8]) | selectivity (SI) for HepG2 (HepG2 cells; HepG2 cytotoxicity / intracellular IC50) | HepG2 cytotoxicity TC50 Galactose (HepG2 cells) | HepG2 cytotoxicity TC50 Glucose (HepG2 cells) | IC50 (M. tuberculosis [3]; [9]) | IC90 (M. tuberculosis [3]; [10]) | selectivity index (SI) (RAW264.7 cells; HepG2 cells and/or macrophages, cell line not specified) | Intracellular activity Cytotoxicity TC50 (RAW264.7 cells) | IC50 (M. tuberculosis [1]; [11]) | selectivity index (TC50/IC50) (RAW264.7 cells) | IC50 (M. tuberculosis [1]; in RAW264.7 macrophages, SAR tables 4-8, listed as 27, read-out: Intracellular Mtb IC50) | Intracellular RAW TC50 (RAW264.7 cells; listed as 17) | IC50 (M. tuberculosis [3]; extracellular, 5 days, OD590) |
| --- | --- | --- | --- | --- | --- | --- | --- | --- | --- | --- | --- | --- | --- | --- | --- | --- | --- | --- | --- | --- |
| OCc1cn(-c2ccc(F)cc2)nc1-c1ccc(Cl)cc1 [TPN-0073583] | 5.8 ± 0.4 µM | 57 ± 28 µM | 66 ± 29 µM | > 20 µM | >100 ^d µM |  |  |  |  |  |  |  |  |  |  |  |  |  |  |  |
| CCN(CC)C(=O)c1sc2nc(-c3ccccc3)ccc2c1N [TPN-0073025] | < 10 µM | 42 µM | 61 ± 48 µM | > 20 µM | 30 ± 6.6 ^f µM | weak activity | 9 ± 6.6 µM |  |  |  |  |  |  |  |  |  |  |  |  |  |
| COC(=O)c1c(NC(NC(=O)c2cccs2)C(=O)c2ccccc2)sc(C(C)=O)c1C (centres unmarked) [TPN-0073588] | 6.5 ± 1.7 µM | > 100 µM | 93 ± 5.5 µM | > 20 µM | 67 ± 8.5 ^b µM |  |  | 6.5 ± 1.7 µM | 15 | >100 ^c µM | >100 ^b µM | > 20 µM | > 20 µM | > 10 | 67 ± 8.5 ^b µM |  |  |  |  |  |
| CCOc1ccc(NC(=S)Nc2ccc(C)c(C#N)c2)cc1 [TPN-0073063] |  | 35 ± 6.6 µM | 64 ± 40 µM | 9.5 ± 3.2 µM | 47 ± 28 ^g µM |  |  | 0.25 ± 0.23 µM |  | 34 ± 6.5 ^e µM | 40 ± 11 ^e µM | 5 ± 1.5 µM | 9.5 ± 3.2 µM |  | 47 ± 28 ^f µM | 0.3 ± 0.2 µM | > 150 |  |  |  |
| CCc1ccc(OCC(=O)Nc2cccc3c2C(=O)OC3)cc1 [TPN-0006204] | 10 ± 0.5 µM | 47 ± 17 µM | 59 ± 10 µM | > 20 µM | >100 ^a µM |  |  | 11 ± 0.5 µM |  | 47 ± 17 ^e µM | 59 ± 10 ^d µM | > 20 µM | > 20 µM |  | >100 ^b µM |  |  |  |  |  |
| Cc1cc(OCC(=O)N2CCC(C)CC2)ccc1Br [TPN-0006213] | 6.6 ± 1.6 µM | 55 ± 5 µM | 93 ± 3.5 µM | > 20 µM | 75 ± 16 ^b µM |  |  |  |  |  |  |  |  |  |  |  |  |  |  |  |
| COCc1cc(C)nc2sc(C(=O)c3ccccc3)c(N)c12 [TPN-0073023] | 17 ± 6.5 µM | 49 µM | 68 ± 1 µM | > 20 µM | 67 ± 18 ^d µM |  |  |  |  |  |  |  |  |  |  |  |  |  |  |  |
| O=C(Nc1ccc(Cl)c(Cl)c1)c1cccs1 [TPN-0073578] |  | 4.7 ± 0.5 µM | 3.9 ± 1.1 µM | > 20 µM | 11 ± 2.2 ^c µM |  |  | 1.7 ± 0.85 µM |  | 4.7 ± 0.54 ^c µM | 3.9 ± 1.1 ^c µM | > 20 µM | > 20 µM |  | 11 ± 2.2 ^d µM |  |  | < 5 µM |  |  |
| O=C(CSc1ccccc1)Nc1ccc(Br)cc1 [TPN-0006205] | 1.4 ± 0.6 µM | > 100 µM | > 100 µM | > 20 µM | 57 ± 24 ^c µM | good intracellular activity |  | 1.4 ± 0.64 µM |  | >100 ^c µM | >100 ^e µM | > 20 µM | > 20 µM |  | 57 ± 23 ^c µM |  | 40 |  |  |  |
| CCOc1ccc(NC(=S)Nc2ccccc2)cc1 [TPN-0073062] |  | > 100 µM | > 100 µM | > 20 µM | >100 ^d µM |  |  | 0.39 ± 0.13 µM |  | >100 ^e µM | >100 ^e µM | 11 ± 5.3 µM | > 20 µM |  | >100 ^d µM | 0.4 ± 0.1 µM | > 250 |  |  |  |
| Nc1c(C(=O)c2ccc(F)cc2)sc2nc(-c3ccccc3)cc(-c3ccccc3)c12 [TPN-0073026] | > 100 µM | > 100 µM | > 100 µM | > 20 µM | >100 ^a µM | not active |  |  |  |  |  |  |  |  |  |  |  |  |  |  |
| Cc1cc(C)nc(NC(=N)Nc2ccc(Br)cc2)n1 [TPN-0073061] |  | 22 ± 3.1 µM | 212 ± 4 µM | 8.2 ± 0.1 µM | 18 ± 4.3 ^d µM |  |  | 1.3 ± 0.15 µM |  | 22 ± 3.1 ^c µM | 22 ± 4.0 ^c µM | 6.3 ± 0.15 µM | 8.2 ± 0.1 µM |  | 18 ± 4.3 ^d µM | 1.3 ± 0.1 µM | 14 |  |  |  |
| Nc1c(C(=O)N2CCCCC2)sc2nc3c(cc12)CCCC3 [TPN-0073024] | 62 ± 31 µM | > 100 µM | > 100 µM | > 20 µM | >100 ^b µM |  |  |  |  |  |  |  |  |  |  |  |  |  |  |  |
| O=C(Nc1ccc(C(F)(F)F)cc1)Nc1cccc(Cl)c1 [TPN-0073070] | 0.7 ± 0.2 µM | 5.5 µM | 5.6 µM | 15 µM | 1.8 ± 0.5 ^b µM |  |  |  |  |  |  |  |  |  |  |  |  |  | 1.8 µM |  |
| O=C(CSc1ccccn1)Nc1ccc(F)c(F)c1 [TPN-0006203] | 7.8 ± 1.6 µM | > 100 µM | > 100 µM | > 20 µM | >100 ^b µM | good intracellular activity |  |  |  |  |  |  |  |  |  |  |  |  |  |  |
| OCc1cn(-c2ccc(F)cc2)nc1-c1cc(F)c(Cl)cc1Cl [TPN-0073565] | 7 ± 1.8 µM | 43 ± 2.3 µM | 46 ± 2.8 µM | > 20 µM | >100 ^d µM |  |  | 7 ± 1.8 µM |  | 43 ± 2.1 ^d µM | 46 ± 2.8 ^e µM | 18.5 µM | > 20 µM |  | >100 ^d µM |  |  |  |  | > 20 µM |
| OCc1cn(-c2ccccc2)nc1-c1ccc(Br)cc1 [TPN-0073563] | 4.3 ± 1.5 µM | 35 ± 3.7 µM | 34 µM |  | 28 ± 7.0 ^e µM |  |  | 4.7 ± 1.1 µM |  | 34 ± 1.9 ^c µM | 34 ± 0 ^c µM |  |  |  | 28 ± 7.0 ^e µM |  |  |  |  |  |
| O=C(COc1ccc(Br)cc1)N1CCN(c2ccccc2F)CC1 [TPN-0006215] | 12 ± 1.6 µM | 57 ± 3 µM | 96 ± 2.5 µM | > 20 µM | 60 ± 27 ^b µM |  |  |  |  |  |  |  |  |  |  |  |  |  |  |  |
| COCc1cc(C)nc2sc(C(=O)Nc3cccc(Cl)c3)c(N)c12 [TPN-0073022] | > 100 µM | 64 µM | 51 µM | > 20 µM | 15 ± 9 ^b µM | not active |  |  |  |  |  |  |  |  |  |  |  |  |  |  |
| O=C(COc1ccc2ccccc2c1)Nc1ccncc1 [TPN-0006212] | 8.2 ± 1.7 µM | 61 ± 4 µM | > 100 µM | > 20 µM | >100 ^b µM |  |  |  |  |  |  |  |  |  |  |  |  |  |  |  |
| Nc1c(C(=O)Nc2nccs2)sc2nc3c(cc12)CCC3 [TPN-0073030] |  | > 100 µM | > 100 µM | > 20 µM | >100 ^c µM |  |  |  |  |  |  |  |  |  |  | 1.1 µM |  |  |  |  |
| O=C(COc1ccc(Cl)cc1)Nc1ccc(N2CCCCC2)c(Cl)c1 [TPN-0006209] |  | > 100 µM | > 100 µM | > 20 µM | 68 ± 0.5 ^b µM |  |  |  |  | >100 ^b µM | >100 ^b µM | > 20 µM | > 20 µM |  | 68 ± 0.50 ^b µM |  |  |  |  |  |
